Reference: patent US20130101972A1, “METHODS FOR REDUCING RISK” (SANOFI, priority 2009, published 2013)

How the values were obtained:
Type in all cases: in vivo, human
[1] = test system: patients with severe heart failure; assay: ANDROMEDA study, placebo-controlled, in patients with left ventricular dysfunction hospitalized with symptomatic HF; settings: versus placebo, patients with severe heart failure requiring recent hospitalization or referral
Description: The present invention relates to the following identified and potential risk of dronedarone: mortality in patients with severe heart failure (HF) during treatment. The study referred to as ANDROMEDA was conducted in 627 patients with left ventricular dysfunction, hospitalized with symptomatic HF, requiring treatment with a diuretic, who have had within the last month at least 1 episode of dyspnea or fatigue at rest, or on slight exertion. […] The study was stopped prematurely due to an observed imbalance of deaths in the dronedarone group [n=25 versus 12 (placebo), p=0.027]. The main reason for death was worsening heart failure. Clinical judgment of the physician should guide the management plan of each patient based on individual benefit/risk assessment.

[2] = test system: patients with atrial fibrillation (AF) or atrial flutter (AFL) or a history of AF or AFL; assay: Clinical efficacy in patients with AF or AFL: cardiovascular hospitalization; settings: 400 mg twice daily (BID)
Text: (§1) The safety of dronedarone has been evaluated in a clinical development program that included, as of 12 Mar. 2008, a total of 8276 treated patients/healthy subjects in 55 completed studies. Of these, 4794 patients/healthy subjects received dronedarone.

patients with AF/AFL = assay: Pooled safety analysis of 5 controlled AF/AFL clinical studies, dronedarone 400 mg BID versus placebo
Text: as §1
Patients with the claimed indication of AF/AFL were included in 5 controlled clinical studies representing 88% (6285 patients) of the exposed patient population (7109 patients). Other patient populations, representing 14% (1028 patients) of the exposed patient population, were included in 13 clinical studies in patients with other cardiac conditions and patients with renal and hepatic impairment.
The safety profile of dronedarone 400 mg BID is derived from analysis of the 3282 patients in the 5 AF/AFL studies who were treated with dronedarone 400 mg BID and the 2875 who received placebo. The mean duration of exposure across the 5 studies in the dronedarone 400 mg BID group was 13.5 months, representing total exposure of 3684 patient-years. In the ATHENA study, the maximum follow-up was 30 months.
Discontinuation due to adverse reactions occurred in 11.8% of patients in the dronedarone 400 mg BID group and 7.7% in the placebo-treated group. The most common adverse events causing discontinuation of therapy with dronedarone 400 mg BID were gastrointestinal disorders (3.2% of patients versus 1.8% in the placebo group).

CCCCc1oc2ccc(NS(C)(=O)=O)cc2c1C(=O)c1ccc(OCCCN(CCCC)CCCC)cc1 [dronedarone, 2-n-butyl-3-[4-(3-di-n-butylaminopropoxy)benzoyl]-5-methylsulfonamido-benzofuran]
Increase in mortality [1]: greater than two-fold increase in mortality
Reduction of the risk of cardiovascular hospitalization [2]: effective for reduction of the risk of cardiovascular hospitalization
Most frequent investigation abnormalities (patients with AF/AFL; dronedarone 400 mg BID): QT prolongation and increase in serum creatinine
Discontinuation due to adverse reactions (patients with AF/AFL; dronedarone 400 mg BID group, 5 AF/AFL studies, placebo 7.7%): 11.8 % of patients
Most frequent clinical adverse reactions (patients with AF/AFL; dronedarone 400 mg BID, 5 studies): diarrhea, nausea and vomiting, fatigue, asthenia, bradycardia, and rashes
Gastrointestinal disorders causing discontinuation of therapy (most common adverse events causing discontinuation) (patients with AF/AFL; dronedarone 400 mg BID, placebo 1.8%): 3.2 % of patients
Effect of intrinsic factors (race, gender, age) on incidence of any treatment-emergent adverse events (patients with AF/AFL; subgroup assessment): did not suggest any excess of adverse events in a particular subgroup
Change in serum creatinine (patients with AF/AFL; within a week, does not reflect a change in underlying renal function): small change in serum creatinine
